# Test results published in patent US8741836B2, “Polypeptides” (Novo Nordisk A/S, priority 2011, dated 2014).
# Starred links: 1 amine or outer side, 2 acyl side, 3 side chain; linkers in the order of their positions; H or OH if unused. Positions of bridges follow the written chain, without caps; N, C: chain ends. Residues, ends and D or L forms follow the SMILES beside them. *: point of attachment. C20 diacid = O=C(O)CCCCCCCCCCCCCCCCCCC(=O)*; γGlu = O=C(O)[C@H](CCC(=O)[*:2])N[*:1]
# Key:
# ad libitum fed rat = assay: Assay (I) efficacy testing on appetite (food intake) using an ad libitum fed rat model; type: in vivo, Sprague Dawley (SD) rats; details: 3 nmol/kg
# In short: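 Ad libitum fed Sprague Dawley rats, 200-250 g, singly housed on reversed light cycle, got one ip, po or sc dose of 0.01-3 mg/kg just before lights off; groups of 5-8 with vehicle control. Food intake recorded hourly for 7 h, then at 24 h and sometimes 48 h; Grubbs outliers excluded.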
# [1] = Assay (III) ThT fibrillation assay for physical stability; type: physicochemical; details: for ThT pH 4.0 lag time: pH 4.0, ThT fibrillation assay
# In short: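 Freshly prepared, pH-adjusted formulations with 1 μM ThT incubated at 37 °C under 960 rpm orbital shaking (1 mm), fluorescence (ex 444, em 485 nm) read every 20 min. […] Peptide content before and after measured by reverse-phase HPLC against pramlintide standard.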
ThT pH 4.0 lag time (physical stability in fibrillogenesis assay) [1] [h],ThT pH 4.0 lag time [1] [h],SMILES,Food intake reduction 0-24 h 3 nmol/kg (%) (ad libitum fed rat),Food intake reduction 24-48 h 3 nmol/kg (%) (ad libitum fed rat)
>45,>45,"CC[C@H](C)[C@H](NC(=O)[C@@H]1CCCN1C(=O)CNC(=O)[C@H](Cc1ccccc1)NC(=O)[C@H](CC(N)=O)NC(=O)[C@H](CC(N)=O)NC(=O)[C@H](CO)NC(=O)[C@H](CO)NC(=O)[C@H](Cc1c[nH]cn1)NC(=O)[C@H](CCCNC(=N)N)NC(=O)[C@H](CC(C)C)NC(=O)[C@H](Cc1ccccc1)NC(=O)[C@H](CCC(=O)O)NC(=O)[C@H](C)NC(=O)[C@H](CC(C)C)NC(=O)[C@H](CCCNC(=N)N)NC(=O)[C@H](CCC(N)=O)NC(=O)[C@@H](NC(=O)[C@H](C)NC(=O)[C@@H]1CSSC[C@H](NC(=O)[C@H](Cc2c[nH]cn2)NC(=O)CNC(=O)CC[C@H](NC(=O)CCCCCCCCCCCCCCCCCCC(=O)O)C(=O)O)C(=O)N[C@@H](CC(N)=O)C(=O)N[C@@H]([C@@H](C)O)C(=O)N[C@@H](C)C(=O)N[C@@H]([C@@H](C)O)C(=O)N1)[C@@H](C)O)C(=O)N[C@@H](CC(C)C)C(=O)N1CCC[C@H]1C(=O)N1CCC[C@H]1C(=O)N[C@H](C(=O)N[C@@H](CC(N)=O)C(=O)N[C@H](C(=O)NCC(=O)N[C@@H](CO)C(=O)N[C@@H](CC(N)=O)C(=O)N[C@H](C(=O)N1CCC[C@H]1C(N)=O)[C@@H](C)O)C(C)C)[C@@H](C)O [Example 89, N-alpha-[(S)-4-Carboxy-4-(19-carboxynonadecanoylamino)butyryl]-Gly-[His1,Glu14,Arg17,Pro37]-pramlintide] ({C20 diacid-γGlu}-GHCNTATCATQRLAEFLRHSSNNFGPILPPTNVGSNTP-NH2; disulfide 3-8 (inferred))",42,23
>45,>45,"CC[C@H](C)[C@H](NC(=O)[C@@H]1CCCN1C(=O)CNC(=O)[C@H](Cc1ccccc1)NC(=O)[C@H](CC(N)=O)NC(=O)[C@H](CC(N)=O)NC(=O)[C@H](CO)NC(=O)[C@H](CO)NC(=O)[C@H](Cc1c[nH]cn1)NC(=O)[C@H](Cc1c[nH]cn1)NC(=O)[C@H](CC(C)C)NC(=O)[C@H](Cc1ccccc1)NC(=O)[C@H](CCC(=O)O)NC(=O)[C@H](C)NC(=O)[C@H](CC(C)C)NC(=O)[C@H](CCCNC(=N)N)NC(=O)[C@H](CCC(N)=O)NC(=O)[C@@H](NC(=O)[C@H](C)NC(=O)[C@@H]1CSSC[C@H](NC(=O)[C@H](CCCNC(=N)N)NC(=O)CC[C@H](NC(=O)CCCCCCCCCCCCCCCCCCC(=O)O)C(=O)O)C(=O)N[C@@H](CC(N)=O)C(=O)N[C@@H]([C@@H](C)O)C(=O)N[C@@H](C)C(=O)N[C@@H]([C@@H](C)O)C(=O)N1)[C@@H](C)O)C(=O)N[C@@H](CC(C)C)C(=O)N1CCC[C@H]1C(=O)N1CCC[C@H]1C(=O)N[C@H](C(=O)N[C@@H](CC(N)=O)C(=O)N[C@H](C(=O)NCC(=O)N[C@@H](CO)C(=O)N[C@@H](CC(N)=O)C(=O)N[C@H](C(=O)N1CCC[C@H]1C(N)=O)[C@@H](C)O)C(C)C)[C@@H](C)O [Example 96, N-alpha-[(S)-4-Carboxy-4-(19-carboxynonadecanoylamino)butyryl]-[Arg1,Glu14,His17,Pro37]-pramlintide] ({C20 diacid-γGlu}-RCNTATCATQRLAEFLHHSSNNFGPILPPTNVGSNTP-NH2; disulfide 2-7)",69,89
>45,>45,"CC[C@H](C)[C@H](NC(=O)[C@@H]1CCCN1C(=O)CNC(=O)[C@H](Cc1ccccc1)NC(=O)[C@H](CC(N)=O)NC(=O)[C@H](CC(N)=O)NC(=O)[C@H](CO)NC(=O)[C@H](CO)NC(=O)[C@H](Cc1c[nH]cn1)NC(=O)[C@H](Cc1c[nH]cn1)NC(=O)[C@H](CC(C)C)NC(=O)[C@H](Cc1ccccc1)NC(=O)[C@H](CCC(=O)O)NC(=O)[C@H](C)NC(=O)[C@H](CC(C)C)NC(=O)[C@H](CCCNC(=N)N)NC(=O)[C@H](CCC(N)=O)NC(=O)[C@@H](NC(=O)[C@H](C)NC(=O)[C@@H]1CSSC[C@H](NC(=O)[C@H](CCCNC(=N)N)NC(=O)CNC(=O)CC[C@H](NC(=O)CCCCCCCCCCCCCCCCCCC(=O)O)C(=O)O)C(=O)N[C@@H](CC(N)=O)C(=O)N[C@@H]([C@@H](C)O)C(=O)N[C@@H](C)C(=O)N[C@@H]([C@@H](C)O)C(=O)N1)[C@@H](C)O)C(=O)N[C@@H](CC(C)C)C(=O)N1CCC[C@H]1C(=O)N1CCC[C@H]1C(=O)N[C@H](C(=O)N[C@@H](CC(N)=O)C(=O)N[C@H](C(=O)NCC(=O)N[C@@H](CO)C(=O)N[C@@H](CC(N)=O)C(=O)N[C@H](C(=O)N1CCC[C@H]1C(N)=O)[C@@H](C)O)C(C)C)[C@@H](C)O [Example 101, N-alpha-[(S)-4-Carboxy-4-(19-carboxynonadecanoylamino)butyryl]-Gly-[Arg1,Glu14,His17,Pro37]-pramlintide] ({C20 diacid-γGlu}-GRCNTATCATQRLAEFLHHSSNNFGPILPPTNVGSNTP-NH2; disulfide 3-8)",70,90
>45,>45,"CC[C@H](C)[C@H](NC(=O)[C@@H]1CCCN1C(=O)CNC(=O)[C@H](Cc1ccccc1)NC(=O)[C@H](CC(N)=O)NC(=O)[C@H](CCC(N)=O)NC(=O)[C@H](CO)NC(=O)[C@H](CO)NC(=O)[C@H](Cc1c[nH]cn1)NC(=O)[C@H](Cc1c[nH]cn1)NC(=O)[C@H](CC(C)C)NC(=O)[C@H](Cc1ccccc1)NC(=O)[C@H](CCC(=O)O)NC(=O)[C@H](C)NC(=O)[C@H](CC(C)C)NC(=O)[C@H](CCCNC(=N)N)NC(=O)[C@H](CCC(N)=O)NC(=O)[C@@H](NC(=O)[C@H](C)NC(=O)[C@@H]1CSSC[C@H](NC(=O)[C@H](CCCCN)NC(=O)CC[C@H](NC(=O)CCCCCCCCCCCCCCCCCCC(=O)O)C(=O)O)C(=O)N[C@@H](CC(N)=O)C(=O)N[C@@H]([C@@H](C)O)C(=O)N[C@@H](C)C(=O)N[C@@H]([C@@H](C)O)C(=O)N1)[C@@H](C)O)C(=O)N[C@@H](CC(C)C)C(=O)N1CCC[C@H]1C(=O)N1CCC[C@H]1C(=O)N[C@H](C(=O)N[C@@H](CC(N)=O)C(=O)N[C@H](C(=O)NCC(=O)N[C@@H](CO)C(=O)N[C@@H](Cc1c[nH]cn1)C(=O)N[C@H](C(=O)N[C@@H](Cc1ccc(O)cc1)C(N)=O)[C@@H](C)O)C(C)C)[C@@H](C)O [Example 117, N-alpha-[(S)-4-Carboxy-4-(19-carboxynonadecanoylamino)butyryl]-[Glu14,His17,Gln21,His35)-pramlintide] ({C20 diacid-γGlu}-KCNTATCATQRLAEFLHHSSQNFGPILPPTNVGSHTY-NH2; disulfide 2-7)",50,35
